Laboratory results from patent US4281654A, “Drug delivery system for controlled ocular therapy” (ALZA Corporation, priority 1980, dated 1981).
≈ marks a conversion by molar mass, not a printed value. Counter-ions that a name gives are not always drawn. One block for each compound: values may come before it.

Key:
[1] = system: open-angle glaucoma, intraocular pressure; experiment: Clinical study of mean intraocular pressure (IOP) in patients diagnosed as having open-angle glaucoma; format: in vivo, patients (human); conditions: 12 patients
Excerpt: The present invention provides an ocular therapeutic system for administering a therapeutically effective amount of a beta-adrenergic blocking drug, and a therapeutically effective amount of a parasympathomimetic drug concurrently from a single ocular dosage form that can lead to synergestic clinical results. The clinical study that follows presents the results obtained by the simultaneous administration to the eye of a beta-adrenergic blocking drug and a parasympathomimetic drug to the eyes of patients.
In a clinical study using 12 patients diagnosed as having open-angle glaucoma, the mean intraocular pressures, IOP's, were measured with each patient under the following therapies: (a) S-(-)-1-(tert-butylamino)-3-[(4-morpholino-1,2,5-thiadiazol-3-yl)oxy-2-propanol maleate, timolol maleate, 0.25% ophthalmic solution instilled as drop alone; (b) timolol maleate, 0.50% ophthalmic solution instilled as drop alone; (c) (3s-cis)-3-ethyldihydro-4-[(1-methyl-1H-imidazol-5-yl) methyl]-2(3H)-furanone, pilocarpine, administered at a rate of 40 micrograms per hour from an ocular therapeutic system placed in the conjunctival sac; (d) therapy comprising 0.25 timolol maleate instilled with concomitant release of 40 micrograms of pilocarpine from an ocular system; and (e) therapy comprising 0.50 timolol maleate instilled with concomitant release of 40 mcg (micrograms) of pilocarpine from an ocular system. In the table, the results of (a) and (c) administered alone are additive, while the results are synergistic for (d) wherein the two drugs were administered concomitantly to the eye. In the table, the results of (b) and (c) administered alone are additive, where the results are synergistic for (e) wherein the two drugs were administered concomitantly to the eye.

[2] = Osmotic pressure of the solute; format: physicochemical
Excerpt: The osmotic pressure, ATM, of the above solutes can be measured in a commercially available osmometer that measures the vapor pressure difference between pure water and the solution containing a solute to be analyzed, and according to standard thermodynamic principles, the vapor pressure ratio is converted into osmotic pressure difference. An osmometer that can be used for the present measurements is identified as Model 302B Vapor Pressure Osmometer, manufactured by Hewlett Packard Company, Avondale, Pa.

[3] = Solubility in distilled water; format: physicochemical

Structure (SMILES): CC(C)(C)NC[C@H](O)COc1nsnc1N1CCOCC1 [timolol, S-(-)-1-(tert-butylamino)-3-[(4-morpholino-1,2,5-thiadiazol-3-yl)oxy-2-propanol maleate]
Mean IOP Reduction ([1]; (a) timolol maleate 0.25% ophthalmic solution instilled as drop alone): 1.4 mm
Mean IOP Reduction ([1]; (b) timolol maleate 0.50% ophthalmic solution instilled as drop alone): 2.4 mm

osmotic pressure [2]: 210 atm
solubility ([3]; 25° C): 860 mg/mL (≈ 3220 mM)
Structure (SMILES): COCCc1ccc(OCC(O)CNC(C)C)cc1 (racemic) [(±)-1-[4-(2-methoxyethyl)-phenoxy]-3-[(1-methylethyl)amino]-2-propanol tratrate]

osmotic pressure [2]: 37 atm
solubility ([3]; water): 270 mg/mL (≈ 1300 mM)
Structure (SMILES): CC[C@@H]1C(=O)OC[C@@H]1Cc1cncn1C [(3S-cis)-ethyldihydro-4-[(1-methyl-1H-imidazol-5-yl)methyl]-2(3H)-furanonenitrate]

Structure (SMILES): CC[C@@H]1C(=O)OC[C@@H]1Cc1cncn1C (relative stereo) [pilocarpine, (3s-cis)-3-ethyldihydro-4-[(1-methyl-1H-imidazol-5-yl)methyl]-2(3H)-furanone]
Mean IOP Reduction ([1]; (c) pilocarpine 40 mcg/hr alone from ocular therapeutic system in conjunctival sac): 1.6 mm
